Values of other authors in patent US9554998B1, “Composition of analgesic bioadhesive healing microspheres” (priority 2015, dated 2017).

Legend:
[1] = applied for 30 minutes to the forearms of healthy volunteers
[2] = single patient

SMILES	local analgesic effect [1]	analgesic control ([2]; liquid sevoflurane directly on to the ulcer bed)	time the ulcer took to heal ([2]; liquid sevoflurane on the ulcer bed) [days]
FC(F)(F)C(Cl)Br (centres unmarked) [halothane]	slight local analgesic effect		
FC(F)OC(Cl)C(F)(F)F (centres unmarked) [isoflurane]	slight local analgesic effect		
FCOC(C(F)(F)F)C(F)(F)F [sevoflurane, fluoromethyl 2.2.2-trifluoro-1-(trifluoromethyl)ethyl ether]	slight local analgesic effect	immediate, intense and long-lasting analgesia	16
